Two compounds from article PMC11638483, “Naringenin chalcone carbon double-bond reductases mediate dihydrochalcone biosynthesis in apple leaves” (Plant Physiology, 2024) can be followed below.

The test system of assay [1] is MdNCR1b. Briefly: product formation assay, varied NADPH […]. It is filed as biochemical, Malus domestica. Conditions: 100 µM naringenin chalcone, Bis-Tris propane 0.1 M, pH 3.0, 30 °C, 30 min.
The test system of assay [2] is MdNCR1b. Put plainly: product formation assay, varied naringenin chalcone […]. It is filed as biochemical, Malus domestica. The settings on record: 400 µM NADPH, Bis-Tris propane 0.1 M, pH 3.0, 30 °C, 30 min; read-out: Km (apparent).

Molecules are shown by their SMILES.

The Km is the substrate concentration at which the rate is half of its maximum. Take `NC(=O)C1=CN([C@@H]2O[C@H](COP(=O)(O)OP(=O)(O)OC[C@H]3O[C@@H](n4cnc5c(N)ncnc54)[C@H](OP(=O)(O)O)[C@@H]3O)[C@@H](O)[C@H]2O)C=CC1` [NADPH]: the Km in assay [1] was 23.1 ± 9.4 µM.

In the case of `O=C(/C=C/c1ccc(O)cc1)c1c(O)cc(O)cc1O` [compound 1, 2ʹ,4,4ʹ,6ʹ-tetrahydroxychalcone], the Km in assay [2] amounted to 9.9 ± 2.6 µM.
